These results are taken from patent US8097628B2, “Compounds” (Glaxo Group Limited, priority 2008, dated 2012).

The test deals with Mycobacterium tuberculosis H37Rv. As to the kind of experiment: Mycobacterium tuberculosis H37Rv Inhibition Assay. The class given is cell-based.
Setting [1] is: H37Rv inhibition assay, read-out: MIC value.
Where [2] appears, read: ATCC 25618 / H37Rv, H37Rv strain (ATCC25618), Middlebrook 7H9, resazurin fluorescence, read-out: MtB MIC.

Each structure is given as a SMILES string. ≈ marks a conversion by molar mass, not a printed value. Structures can show the parent of a compound that is named as a salt. Where two headings read alike, the source gives them in different places.

As for `O=c1ccc2ccc(=O)n3c2n1C[C@H]3CN1CCC(NCc2ccc(CO)c(Cl)c2)CC1` [Example 64, (1R)-1-{[4-({[3-chloro-4-(hydroxymethyl)phenyl]methyl}amino)-1-piperidinyl]methyl}-1,2-dihydro-4H,9H-imidazo[1,2,3-ij]-1,8-naphthyridine-4,9-dione], the MIC under setting [1] is above 1 µg/mL.

For `O=c1ccc2ncc(=O)n3c2n1CC3CN1CCC(NCc2cncc(Br)c2)CC1` (centres unmarked) [Example 41, 2-[(4-{[(5-bromo-3-pyridinyl)methyl]amino}-1-piperidinyl)methyl]-1,2-dihydro-3H,8H-2a,5,8a-triazaacenaphthylene-3,8-dione], the MIC under setting [2] is 0.884 µg/mL (≈ 1.88 µM).

Turning to `Cc1ncc(CNC2CCN(C[C@@H]3Cn4c(=O)ccc5ccc(=O)n3c54)CC2)cc1F` [Example 63, (1R)-1-[(4-{[(5-fluoro-6-methyl-3-pyridinyl)methyl]amino}-1-piperidinyl)methyl]-1,2-dihydro-4H,9H-imidazo[1,2,3-ij]-1,8-naphthyridine-4,9-dione], the minimum inhibitory concentration (MIC) under setting [1] is above 1 µg/mL.

As for `Cc1ncc(CNC2CCN(C[C@@H]3Cn4c(=O)ccc5ncc(=O)n3c54)CC2)cc1Br` [Example 51, (2R)-2-[(4-{[(5-bromo-6-methyl-3-pyridinyl)methyl]amino}-1-piperidinyl)methyl]-1,2-dihydro-3H,8H-2a,5,8a-triazaacenaphthylene-3,8-dione hydrochloride], for the setting “ATCC 25618 / H37Rv, read-out: MtB MIC”, the MIC was 0.015 µg/mL.

Consider `O=c1ccc2ncc(=O)n3c2n1CC3CN1CCC(NCc2cnc(Cl)s2)CC1` (centres unmarked) [Example 37, 2-[(4-{[(2-chloro-1,3-thiazol-5-yl)methyl]amino}-1-piperidinyl)methyl]-1,2-dihydro-3H,8H-2a,5,8a-triazaacenaphthylene-3,8-dione], for which, under setting [2], the MIC stood at 2.17 µg/mL (≈ 5 µM).

For `O=c1ccc2ncc(=O)n3c2n1CC3CN1CCC(NCc2ccc(OC(F)(F)F)cc2)CC1` (centres unmarked) [Example 27, 2-({4-[({4-[(trifluoromethyl)oxy]phenyl}methyl)amino]-1-piperidinyl}methyl)-1,2-dihydro-3H,8H-2a,5,8a-triazaacenaphthylene-3,8-dione], the minimum inhibitory concentration (MIC) was 2.38 µg/mL (≈ 5 µM) under setting [2] and above 1 µg/mL under setting [1].

As for `O=c1ccc2ccc(=O)n3c2n1C[C@H]3CN1CCC(NCc2cnc(CO)c(Cl)c2)CC1` [Example 56, (1R)-1-{[4-({[5-chloro-6-(hydroxymethyl)-3-pyridinyl]methyl}amino)-1-piperidinyl]methyl}-1,2-dihydro-4H,9H-imidazo[1,2,3-ij]-1,8-naphthyridine-4,9-dione], the minimal inhibitory concentration (MIC) under setting [2] worked out at 0.3 µg/mL (≈ 0.658 µM).

For `Cc1ncc(CNC2CCN(C[C@@H]3Cn4c(=O)cnc5ccc(=O)n3c54)CC2)cc1Cl.Cl` [Example 8, (1R)-1-[(4-{[(5-chloro-6-methyl-3-pyridinyl)methyl]amino}-1-piperidinyl)methyl]-1,2-dihydro-3H,8H-2a,5,8a-triazaacenaphthylene-3,8-dione hydrochloride], under setting [2], the MIC was 0.08 µg/mL.

With `Cl.O=c1ccc2ccc(=O)n3c2n1C[C@H]3CN1CCC(NCc2ccc(Cl)c(Cl)c2)CC1` [Example 31, (1R)-1-[(4-{[(3,4-dichlorophenyl)methyl]amino}-1-piperidinyl)methyl]-1,2-dihydro-4H,9H-imidazo[1,2,3-ij]-1,8-naphthyridine-4,9-dione hydrochloride], the MIC under setting [2] is 0.019 µg/mL.

For `CCc1ncc(CNC2CCN(C[C@@H]3Cn4c(=O)ccc5ccc(=O)n3c54)CC2)cc1F` [Example 54, (1R)-1-[(4-{[(6-ethyl-5-fluoro-3-pyridinyl)methyl]amino}-1-piperidinyl)methyl]-1,2-dihydro-4H,9H-imidazo[1,2,3-ij]-1,8-naphthyridine-4,9-dione], the minimum inhibitory concentration (MIC) under setting [2] is 2.19 µg/mL (≈ 5 µM).

On to `O=c1ccc2ncc(=O)n3c2n1CC3CN1CCC(NCc2cnc(Cl)c(Cl)c2)CC1` (centres unmarked) [Example 15, 2-[(4-{[(5,6-dichloro-3-pyridinyl)methyl]amino}-1-piperidinyl)methyl]-1,2-dihydro-3H,8H-2a,5,8a-triazaacenaphthylene-3,8-dione], for which, under setting [2], the MIC was below 0.018 µg/mL.

Consider `O=c1ccc2ncc(=O)n3c2n1CC3CN1CCC(NCc2ccc(C(F)(F)F)nn2)CC1` (centres unmarked) [Example 17, 2-{[4-({[6-(trifluoromethyl)-3-pyridazinyl]methyl}amino)-1-piperidinyl]methyl}-1,2-dihydro-3H,8H-2a,5,8a-triazaacenaphthylene-3,8-dione], for which, under setting [2], the MIC was determined as 0.865 µg/mL (≈ 1.87 µM).

In the case of `Cc1cc(CNC2CCN(C[C@@H]3Cn4c(=O)ccc5ncc(=O)n3c54)CC2)ccc1F.Cl` [Example 6, (2R)-2-[(4-{[(4-fluoro-3-methylphenyl)methyl]amino}-1-piperidinyl)methyl]-1,2-dihydro-3H,8H-2a,5,8a-triazaacenaphthylene-3,8-dione hydrochloride], the MIC under setting [2] was 0.29 µg/mL.

On to `O=c1ccc2ncc(=O)n3c2n1CC3CN1CCC(NCc2ccc(F)c(F)c2)CC1` (centres unmarked) [Example 44, 2-[(4-{[(3,4-difluorophenyl)methyl]amino}-1-piperidinyl)methyl]-1,2-dihydro-3H,8H-2a,5,8a-triazaacenaphthylene-3,8-dione], for which, under setting [2], the MIC was 0.267 µg/mL (≈ 0.625 µM).

On to `O=c1ccc2ncc(=O)n3c2n1CC3CN1CCC(NCc2ccc(Cl)cc2)CC1` (centres unmarked) [Example 21, 2-[(4-{[(4-chlorophenyl)methyl]amino}-1-piperidinyl)methyl]-1,2-dihydro-3H,8H-2a,5,8a-triazaacenaphthylene-3,8-dione], for which, under setting [2], the MIC was determined as 0.266 µg/mL (≈ 0.625 µM).

For the compound `O=c1ccc2ncc(=O)n3c2n1CC3CN1CCC(NCc2ccc(Cl)c(C(F)(F)F)c2)CC1` (centres unmarked) [Example 16, 2-{[4-({[4-chloro-3-(trifluoromethyl)phenyl]methyl}amino)-1-piperidinyl]methyl}-1,2-dihydro-3H,8H-2a,5,8a-triazaacenaphthylene-3,8-dione], the MIC under setting [2] is 0.077 µg/mL (≈ 0.156 µM).

Turning to `O=c1cnc2ccc(=O)n3c2n1C[C@H]3CN1CCC(NCc2ccc(Cl)c(Cl)c2)CC1` [Example 10, (1R)-1-[(4-{[(3,4-dichlorophenyl)methyl]amino}-1-piperidinyl)methyl]-1,2-dihydro-3H,8H-2a,5,8a-triazaacenaphthylene-3,8-dione], the minimum inhibitory concentration (MIC) under setting [2] was below 0.02 µg/mL.

For the compound `Cc1ncc(CNC2CCN(CC3Cn4c(=O)ccc5ncc(=O)n3c54)CC2)cc1Cl` (centres unmarked) [Example 26, 2-[(4-{[(5-chloro-6-methyl-3-pyridinyl)methyl]amino}-1-piperidinyl)methyl]-1,2-dihydro-3H,8H-2a,5,8a-triazaacenaphthylene-3,8-dione], the MIC under setting [2] stood at 0.069 µg/mL (≈ 0.156 µM).

For the compound `O=c1cnc2ccc(=O)n3c2n1C[C@H]3CN1CCC(NCc2ccc(C(F)(F)F)nc2)CC1` [Example 11, (1R)-1-{[4-({[6-(trifluoromethyl)-3-pyridinyl]methyl}amino)-1-piperidinyl]methyl}-1,2-dihydro-3H,8H-2a,5,8a-triazaacenaphthylene-3,8-dione], the MIC under setting [2] was 0.14 µg/mL (≈ 0.304 µM).

Regarding `Cl.N#Cc1ncc(CNC2CCN(C[C@@H]3Cn4c(=O)ccc5ccc(=O)n3c54)CC2)cc1Cl` [Example 50, 3-chloro-5-{[(1-{[(1R)-4,9-dioxo-1,2-dihydro-4H,9H-imidazo[1,2,3-ij]-1,8-naphthyridin-1-yl]methyl}-4-piperidinyl)amino]methyl}-2-pyridinecarbonitrile dihydrochloride], under setting [2], the MIC came out at 0.082 µg/mL.

Turning to `O=c1ccc2ncc(=O)n3c2n1CC3CN1CCC(NCc2cncc(Cl)c2)CC1` (centres unmarked) [Example 42, 2-[(4-{[(5-chloro-3-pyridinyl)methyl]amino}-1-piperidinyl)methyl]-1,2-dihydro-3H,8H-2a,5,8a-triazaacenaphthylene-3,8-dione], under setting [2], the MIC turned out to be 1.07 µg/mL (≈ 2.5 µM).

`CC(=O)OCc1ccc(CNC2CCN(C[C@@H]3Cn4c(=O)ccc5ccc(=O)n3c54)CC2)cc1Cl` [Example 71, (2-chloro-4-{[(1-{[(1R)-4,9-dioxo-1,2-dihydro-4H,9H-imidazo[1,2,3-ij]-1,8-naphthyridin-1-yl]methyl}-4-piperidinyl)amino]methyl}phenyl)methyl acetate]: the minimum inhibitory concentration (MIC) under setting [1] was above 1 µg/mL.

Turning to `O=c1ccc2ncc(=O)n3c2n1C[C@@H]3CN1CCC(NCc2ccc(C(F)(F)F)nc2)CC1` [Example 48, (2S)-2-{[4-({[6-(trifluoromethyl)-3-pyridinyl]methyl}amino)-1-piperidinyl]methyl}-1,2-dihydro-3H,8H-2a,5,8a-triazaacenaphthylene-3,8-dione], the minimal inhibitory concentration (MIC) is 2.3 µg/mL (≈ 5 µM) under setting [2] and above 1 µg/mL under setting [1].

As to `Cl.O=c1ccc2ncc(=O)n3c2n1CC3CN1CCC(NCc2ccc(C(F)(F)F)nc2)CC1` (centres unmarked) [Example 20, 2-{[4-({[6-(trifluoromethyl)-3-pyridinyl]methyl}amino)-1-piperidinyl]methyl}-1,2-dihydro-3H,8H-2a,5,8a-triazaacenaphthylene-3,8-dione hydrochloride], under setting [2], the minimal inhibitory concentration (MIC) is 0.311 µg/mL.

For the compound `O=c1ccc2ncc(=O)n3c2n1CC3CN1CCC(NCc2ccc(Br)cn2)CC1` (centres unmarked) [Example 40, 2-[(4-{[(5-bromo-2-pyridinyl)methyl]amino}-1-piperidinyl)methyl]-1,2-dihydro-3H,8H-2a,5,8a-triazaacenaphthylene-3,8-dione], the MIC is, setting by setting: under setting [2], 1.18 µg/mL (≈ 2.5 µM); under setting [1], above 1 µg/mL.

As to `O=c1ccc2ncc(=O)n3c2n1CC3CN1CCC(NCc2cc(Br)cs2)CC1` (centres unmarked) [Example 35, 2-[(4-{[(4-bromo-2-thienyl)methyl]amino}-1-piperidinyl)methyl]-1,2-dihydro-3H,8H-2a,5,8a-triazaacenaphthylene-3,8-dione], the minimum inhibitory concentration (MIC) reads like this: under setting [2], 1.19 µg/mL (≈ 2.5 µM); under setting [1], above 1 µg/mL.

For `Cc1cc(CNC2CCN(CC3Cn4c(=O)ccc5ncc(=O)n3c54)CC2)cnc1F` (centres unmarked) [Example 33, 2-[(4-{[(6-fluoro-5-methyl-3-pyridinyl)methyl]amino}-1-piperidinyl)methyl]-1,2-dihydro-3H,8H-2a,5,8a-triazaacenaphthylene-3,8-dione], the minimum inhibitory concentration (MIC) under setting [2] stood at 0.531 µg/mL (≈ 1.25 µM).

In the case of `Cc1cc(CNC2CCN(C[C@@H]3Cn4c(=O)ccc5ccc(=O)n3c54)CC2)ncc1Cl.Cl` [Example 7, (1R)-1-[(4-{[(5-chloro-4-methyl-2-pyridinyl)methyl]amino}-1-piperidinyl)methyl]-1,2-dihydro-4H,9H-imidazo[1,2,3-ij]-1,8-naphthyridine-4,9-dione hydrochloride], the MIC under setting [2] was determined as 0.3 µg/mL.
